Measured values taken from patent publication US20050118226A1, “Methods for treating ACAT-related diseases” (priority 2003, published 2005).
“Also recorded” adds a separate entry of the source.

Experiments:
γ-secretase = assay: In vitro generation of APP intracellular domain (AICD), γ-secretase activity assay on CHO cell membrane fractions; format: biochemical, Chinese hamster; details: CHO cell (overexpressing APP) membrane fractions, increasing amounts of compound
Method: Membrane preparation and in vitro generation of AICD were performed as described (Gu et al., 2001; Kim et al., 2002). P2 membrane fractions were prepared from CHO cells overexpressing wild type APP and resuspended in Buffer H (20 mM HEPES, 150 mM NaCl, 10% glycerol, 5 mM EDTA, pH 7.4) with protease inhibitors. In vitro cleavage experiments were performed by incubating the membrane fractions at 0° C. or 37° C. for 1 hour with the indicated amounts of CP-113,818. As a negative control, a specific γ-secretase inhibitor, L-685,458, was added to one of the samples.

synaptophysin = assay: Synaptophysin immunoreactivity in hippocampal CA1 region; format: in vivo, mouse; details: CA1 layer of hippocampus, hAPP mice, vs placebo
Method: For histomorphological analyses, 8 to 15 histological sections (10 μm) were prepared from one hemisphere of 12 animals (6 placebo, 6 CP-113,818; 3 male, 3 female per group). Number and surface area of amyloid plaques were evaluated in both cortex and hippocampus. 6E10 (Signet; 1:5000; monoclonal) as primary antibody, and Cy™3 fluorescent goat anti-mouse IgG as secondary antibody (Jackson Immuno Research) were used for Aβ staining. Sections of the same brains were also used for synaptophysin staining (Chemicon; 1:5000; monoclonal). Synaptophysin immunoreactive spots were counted by light microscopy in the hippocampal CA1 region. The estimation of immunohistochemical reactions was done by computer-assisted quantification (IMAGE PRO PLUS, Media Cybernetics).

[1] = molecular target: T1, purified recombinant human BACE1 (Homo sapiens, UniProt P56817); assay: In vitro fluorometric BACE1 activity assay; format: biochemical; details: increasing amounts of compound, 2 hours
T1 construct: purchased R&D systems
Method: A fluorometric β-secretase activity kit was used for detecting BACE1 activity in vitro. Reaction was done according to the manufacturer's instructions with slight modifications. Briefly, 1 μg of purified recombinant human BACE1 (R&D systems) was resuspended in 10 μl of 1× cell extraction buffer (R&D systems) and incubated with EDANS/DABCYL-[…] substrate peptide in the absence or presence of indicated account of CP-113,818 for 2 hours. Released EDANS fluorescence was measured by a fluorescent plate reader (Analyst AD, LJL Biosystems). As a negative control, a specific β-secretase inhibitor, GL-189 (Calbiochem) was added to one of the samples with the indicated concentration.

[2] = system: γ-secretase complex components and substrates, BACE1, ApoE; assay: Western blot of γ-secretase components and substrates, BACE1 and ApoE in non-transgenic littermates; format: in vivo, mouse
Method: For Western blot analyses, frozen hemispheres of non-transgenic littermates were homogenized in TBS buffer containing 5 mM EDTA, 1 mM 1,10-phenanthroline (ICN Biomedicals), 20 μM ALLN (BioMol) and a protease inhibitor mixture (Roche). Homogenates were centrifuged at 100000 g for 1 hour at +4° C. The supernatants were used for analyses of secreted APP forms and ApoE, while the pellets extracted with the homogenization buffer containing 1% Triton X-100 and 0.2% SDS. 120 μg of total protein were resolved on 4-12% or 12% NuPAGE Bis-Tris gels (Invitrogen) under reducing conditions, and Western blots were performed as described previously (Puglielli et al., 2001). For analysis of Notch-ICD (NICD), 250 μg of total protein was immunoprecipitated with an NICD-specific antibody (cleavage site (Val1744)-specific; Cell Signaling Technology) according to manufacturer's recommendations. Antibodies used for Western blots were R1736 (specific for sAPP-α; a gift from Dr. D. J. Selkoe, Brigham and Women's Hospital, Boston, Mass.), Abl4 (PS 1-NTF; a gift from Dr. S. E. Gandy, Thomas Jefferson University, Philadelphia, Pa.), Pen2 (a gift from Dr. S. S. Sisodia, University of Chicago, Chicago, Ill.), N-Cadherin (C32, C-terminal; BD Transduction Laboratories), ApoE (Santa Cruz Biotechnology), β-tubulin (Sigma), BACE1 and Nicastrin (Affinity BioReagents). Rbt×APP (CTF), 22C11 (APP-NTF) and Rbt×PSI (PS 1-CTF) were from Chemicon International. BACE stainings (N-terminal; Affinity BioReagents) were confirmed with two additional antibodies; Ms×BACE1 (Chemicon International) and BACE (C-terminal; Affinity BioReagents). Densitometric analyses were performed using the QuantityOne software package (Bio-Rad). Statistical significance was determined by Student's t test. For Western blot analyses shown in supplemental figures, neutralized formic acid fractions (approximately 100 μg of total protein) were precipitated by adding 50% trichloroacetic acid to 15.5% final concentration. After 30 min incubation and centrifugation at 4° C., the pellets were solubilized by adding 10 μl of 2M Tris base and 10 μl of 4×LDS-PAGE loading buffer (NuPage, Invitrogen). Before loading, the samples were incubated for 30 min at 37° C., freeze-thawed once and boiled. Western blot analysis was performed as described above.
Our previous cell-based studies have shown that ACAT inhibition reduces Aβ generation and alters APP processing by all three secretases (Puglielli et al., 2001). To determine whether CP-113,818 treatment modified brain APP processing in hAPP mice, we initially resolved formic acid-extracted brain proteins by SDS-PAGE to detect APP and its proteolytic derivatives. […] However, levels of the secreted cleavage products of both α- and β-secretases (sAPP) were reduced by treatment with the ACAT inhibitor albeit not nearly as dramatically as Aβ (FIG. 9). Inhibition of sAPP production in the absence of a change in CTFs was somewhat surprising, and possibly an artifact caused by formic acid extraction. Because tissue from treated hAPP mice had been extracted with formic acid or fixed for histological studies, we looked at levels of APP-CTFs in total brain lysates from the non-transgenic littermates used in the Morris water maze tests. Using non-transgenic animals for these experiments also afforded an assessment of the effects of CP-113,818 on endogenous APP processing. CP-113,818 reduced liver cholesterol/cholesteryl-esters and serum cholesterol of non-transgenic littermates similarly to the transgenic animals shown in FIG. 1C (data not shown). Endogenous mouse APP-CTF levels in brain lysates from CP-113,818-treated animals decreased by 44% when compared to placebo-treated mice (n=8, p<0.005, values normalized to APP holoprotein levels; FIG. 10A, B). We could not resolve C99 and C83 from these samples due to smearing in the low molecular weight range because of high protein load (FIG. 10A). […]

T1 sequence (P56817 46-501): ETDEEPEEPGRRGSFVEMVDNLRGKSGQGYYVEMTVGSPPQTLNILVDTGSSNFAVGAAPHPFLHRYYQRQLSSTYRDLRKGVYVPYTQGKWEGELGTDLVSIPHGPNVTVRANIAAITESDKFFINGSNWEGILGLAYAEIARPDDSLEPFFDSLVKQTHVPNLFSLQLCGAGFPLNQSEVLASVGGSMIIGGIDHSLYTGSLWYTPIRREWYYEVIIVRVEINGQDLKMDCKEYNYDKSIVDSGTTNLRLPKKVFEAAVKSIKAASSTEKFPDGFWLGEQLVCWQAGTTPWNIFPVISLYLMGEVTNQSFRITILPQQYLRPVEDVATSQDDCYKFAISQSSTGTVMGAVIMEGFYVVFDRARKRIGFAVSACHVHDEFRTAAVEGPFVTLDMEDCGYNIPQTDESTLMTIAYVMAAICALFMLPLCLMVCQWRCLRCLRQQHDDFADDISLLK

## CCCCCCCC[C@H](SCCCCCC)C(=O)Nc1c(SC)cc(C)nc1SC [CP-113,818]
γ-secretase
  effect on γ-secretase activity (AICD generation) in vitro: unaffected; also recorded: no direct effect
synaptophysin
  synaptic density as synaptophysin immunoreactivity: did not induce significant changes; also recorded: unchanged
[1]
  effect on BACE1 activity in vitro: unaffected; also recorded: no direct effect
[2]; immunoprecipitated from non-transgenic mouse brain lysates
  Notch intracellular domain (NICD) levels: statistically unchanged; also recorded: remained unchanged
[2]; non-transgenic brain lysates
  BACE protein levels: unchanged; also recorded: did not alter expression levels
  levels of N-cadherin-CTF1: unaffected; also recorded: remained unchanged
  levels of PS1 N- and C-terminal fragments, nicastrin, and pen-2: did not detect significant changes
  nicastrin maturation / maturation of γ-secretase complex: unaffected; also recorded: did not alter maturation
[2]; non-transgenic littermates, soluble TBS fraction
  expression of ApoE: unchanged; also recorded: did not alter expression levels
